Reference: patent US11976083B2, “Inhibitors of peptidylarginine deiminases” (Gilead Sciences, Inc., priority 2020, dated 2024)

Biological target: T1, human PAD4 (Homo sapiens, UniProt Q9UM07)
T1 construct: human PAD4 (NM_012387), A2-P663, was PCR amplified; His-SUMO (N, cleaved yes); made in house; host or cells: E. coli BL21(DE3)
Assay: In vitro PAD4 BAEE biochemical assay
Settings: BAEE substrate 3 mM, 5 nM PAD4, 2 mM calcium chloride; geometric mean of multiple experiments
Procedure, shortened: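 Recombinant PAD4 (5 nM final) with 2 mM CaCl2 was preincubated with compound for 30 min at 25 °C in MOPS pH 7.6 buffer with DTT, then reacted with 3 mM BAEE for 2 h at 25 °C. Released ammonia was detected fluorimetrically with o-phthalaldehyde/DTT; IC50 from four-parameter fit, geometric mean of experiments.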

T1 sequence (Q9UM07 2-663): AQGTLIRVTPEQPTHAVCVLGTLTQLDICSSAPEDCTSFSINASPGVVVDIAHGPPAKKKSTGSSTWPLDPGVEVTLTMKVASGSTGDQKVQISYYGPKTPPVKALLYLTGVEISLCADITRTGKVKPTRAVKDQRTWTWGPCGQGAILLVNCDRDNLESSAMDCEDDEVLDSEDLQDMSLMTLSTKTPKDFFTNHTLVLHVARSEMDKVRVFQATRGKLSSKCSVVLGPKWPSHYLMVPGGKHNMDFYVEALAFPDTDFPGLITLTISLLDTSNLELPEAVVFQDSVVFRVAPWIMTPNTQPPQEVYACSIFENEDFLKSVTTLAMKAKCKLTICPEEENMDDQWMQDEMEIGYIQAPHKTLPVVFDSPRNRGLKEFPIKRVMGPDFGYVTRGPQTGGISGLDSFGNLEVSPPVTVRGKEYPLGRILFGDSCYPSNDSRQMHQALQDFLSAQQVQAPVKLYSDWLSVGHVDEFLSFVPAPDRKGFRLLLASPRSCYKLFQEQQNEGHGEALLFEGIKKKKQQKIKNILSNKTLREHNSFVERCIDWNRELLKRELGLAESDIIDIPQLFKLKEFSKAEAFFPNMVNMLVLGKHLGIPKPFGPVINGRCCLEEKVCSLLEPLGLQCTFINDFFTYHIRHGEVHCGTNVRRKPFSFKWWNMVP

SMILES	IC50 [nM]
C[C@H]1NC(=O)[C@@H]2C[C@H]2CCCCCn2c(-c3nc4cc(C(=O)N[C@H]5CNCC[C@@H]5F)c(F)cc4n3C)cc3ccc1nc32 [Example 242, 6-fluoro-~{N}-[(3~{S},4~{S})-4-fluoro-3-piperidyl]-1-methyl-2-[(2~{R},5~{R},7~{R})-2-methyl-4-oxo-3,13,19-triazatetracyclo[11.5.2.0^{5,7}.0^{16,20}]icosa-1(19),14,16(20),17-tetraen-14-yl]benzimidazole-5-carboxamide]	31
C[C@@H]1c2ccc3cc(-c4nc5cc(C(=O)N6CCC[C@@H](N)[C@H]6C)cc(F)c5n4C4CC4)n(c3n2)CCCCCc2nc3ccccc3cc2C(=O)N1C [Example 832, (2~{R})-21-[5-[(2~{R},3~{R})-3-amino-2-methyl-piperidine-1-carbonyl]-1-cyclopropyl-7-fluoro-benzimidazol-2-yl]-2,3-dimethyl-3,13,20,26-tetrazapentacyclo[18.5.2.0^ {5,14}.0^{7,12}.0^ {23,27}]heptacosa-1(26), 5(14),6,8,10,12,21,23(27), 24-nonaen-4-one]	13
COc1cc(C(=O)N2CCC[C@@H](N)C2)cc2nc(-c3cc4ccc5nc4n3CCCCCCCC(=O)N(C)C5)n(C)c12 [Example 234, 17-[5-[(3˜{R})-3-aminopiperidine-1-carbonyl]-7-methoxy-1-methyl-benzimidazol-2-yl]-10-methyl-1,10,19-triazatricyclo[10.5.2.0^{15,18}]nonadeca-12(19),13,15(18),16-tetraen-9-one]	622
COc1cc(C(=O)N2CCC[C@@H](N)[C@H]2C)cc2nc(-c3cc4ccc5nc4n3CC(F)(F)CCC[C@]3(F)C[C@H]3C(=O)N[C@@H]5C)n(C)c12 [Example 703, (2~{R},5~{S},7~{S})-14-[5-[(2~{R},3~{R})-3-amino-2-methyl-piperidine-1-carbonyl]-7-methoxy-1-methyl-benzimidazol-2-yl]-7,11,11-trifluoro-2-methyl-3,13,19-triazatetracyclo[11.5.2.0^ {5,7}.0^{16,20}]icosa-1(19), 14,16(20),17-tetraen-4-one]	11
COc1cc(C(=O)N2[C@H]3CC[C@@H]2[C@H](N)C3)cc2nc(-c3cc4ccc5cc4n3CCCCCCC(C)(C)C(=O)Nc3ccccc3-5)n(C)c12 [Example 100, 18-[5-[(1~{R},2~{R},4~{S})-2-amino-7-azabicyclo[2.2.1]heptane-7-carbonyl]-7-methoxy-1-methyl-benzimidazol-2-yl]-10,10-dimethyl-8,17-diazatetracyclo[15.5.2.0^{2,7}.0^{20,24}] tetracosa-1(23),2(7),3,5,18,20(24),21-heptaen-9-one]	833
C[C@H]1NC(=O)[C@@H]2C[C@H]2CCCCCn2c(-c3nc4cc(C(=O)N5[C@H]6CC[C@@H]5[C@H](N)C6)c(F)cc4n3C3CC3)cc3ccc1nc32 [Example 557, (2~{R},5~{R},7~{R})-14-[5-[(1~{R},2~{R},4~ {S})-2-amino-7-azabicyclo [2.2.1]heptane-7-carbonyl]-1-cyclopropyl-6-fluoro-benzimidazol-2-yl]-2-methyl-3,13,19-triazatetracyclo[11.5.2.0^ {5,7}.0^{16,20}] icosa-1(19),14,16(20), 17-tetraen-4-one]	31
COc1cc(C(=O)N2CCC[C@@H](N)C2)cc2nc(-c3cc4ccc5nc4n3CCCCCCCC(=O)NC5)n(C)c12 [Example 232, 17-[5-[(3~{R})-3-aminopiperidine-1-carbonyl]-7-methoxy-1-methyl-benzimidazol-2-yl]-1,10,19-triazatricyclo[10.5.2.0^{15,18}]nonadeca-12(19),13,15(18),16-tetraen-9-one]	549
COc1cc(C(=O)N2[C@H]3CC[C@@H]2[C@H](N)C3)cc2nc(-c3cc4ccc5nc4n3CCCCCCC(C)(C)C(=O)N[C@@H]5C)n(C3CC3)c12 [Example 253, (11~{R})-17-[5-[(1~{R},2~{R},4~{S})-2-amino-7-azabicyclo[2.2.1]heptane-7-carbonyl]-1-cyclopropyl-7-methoxy-benzimidazol-2-yl]-8,8,11-trimethyl-1,10,19-triazatricyclo[10.5.2.0^{15,18}]nonadeca-12(19),13,15(18),16-tetraen-9-one]	103
COc1cc(C(=O)N2CC[C@@H](OC)[C@@H](N)C2)cc2nc(-c3cc4ccc5nc4n3CCCCCc3ccnc(F)c3C(=O)N[C@@H]5C)n(C)c12 [Example 825, (2~{R})-17-[5-[(3~{S},4~ {R})-3-amino-4-methoxy-piperidine-1-carbonyl]-7-methoxy-1-methyl-benzimidazol-2-yl]-6-fluoro-2-methyl-3,7,16,22-tetrazatetracyclo[14.5.2.0^ {5,10}.0^{19,23}]tricosa-1(21),5,7,9,17,19,22-heptaen-4-one]	38
COc1cc(C(=O)N2C[C@H](N)C[C@@H](F)C2)cc2nc(-c3cc4ccc5nc4n3CC(F)(F)CCCC[C@@](C)(C(F)(F)F)C(=O)N[C@@H]5C)n(C)c12 [Example 728, (8~{R},11~{R})-17-[5-[(3~ {R},5~{R})-3-amino-5-fluoro-piperidine-1-carbonyl]-7-methoxy-1-methyl-benzimidazol-2-yl]-3,3-difluoro-8,11-dimethyl-8-(trifluoromethyl)-1,10,19-triazatricyclo[10.5.2.0^ {15,18}]nonadeca-12(19),13,15(18),16-tetraen-9-one]	75

Results, then the molecule that gave them:

IC50 [nM]	SMILES
46	COc1cc(C(=O)N2C[C@H](N)[C@@H]3CC[C@H]2C3)cc2nc(-c3cc4ccc5nc4n3CC(F)(F)CCC[C@@H]3C[C@@]3(C)C(=O)N[C@@H]5C)n(C3CC3)c12 [Example 924, (2~{R},5~{R},7~{R})-14-[5-[(1~{S),4~{R},5~{R})-4-amino-2-azabicyclo[3.2.1]octane-2-carbonyl]-1-cyclopropyl-7-methoxy-benzimidazol-2-yl]-11,11-difluoro-2,5-dimethyl-3,13,19-triazatetracyclo [11.5.2.0^{5,7}.0^{16,20}] icosa-1(19),14,16(20), 17-tetraen-4-one]
95	CO[C@@H]1CCN(C(=O)c2cc(OC(F)F)c3c(c2)nc(-c2cc4ccc5nc4n2CCCCC[C@@H]2C[C@H]2C(=O)N[C@@H]5C)n3C)C[C@@H]1N [Example 511, (2~{R},5~{R}, 7~{R})-14-[5-[(3~{S},4~{R})-3-amino-4-methoxy-piperidine-1-carbonyl]-7-(difluoromethoxy)-1-methyl-benzimidazol-2-yl]-2-methyl-3,13,19-triazatetracyclo[11.5.2.0^ {5,7}.0^{16,20}] icosa-1(19),14,16(20), 17-tetraen-4-one]
63	C[C@H]1NC(=O)[C@@H]2[C@@H](CCCCCn3c(-c4nc5cc(C(=O)N[C@H]6CNCC[C@@H]6F)c(F)cc5n4C4CC4)cc4ccc1nc43)C2(F)F [Example 393, 1-cyclopropyl-2-[(2~{R},5~{S},7~{R})-6,6-difluoro-2-methyl-4-oxo-3,13,19-triazatetracyclo[11.5.2.0^{5,7}.0^{16,20}]icosa-1(19),14,16(20),17-tetraen-14-yl]-6-fluoro-~{N}-[(3~{S},4~{S})-4-fluoro-3-piperidyl]benzimidazole-5-carboxamide]
27	CO[C@@H]1CCN(C(=O)c2cc(F)c3c(c2)nc(-c2cc4ccc5nc4n2CCCCCc2cncc(Cl)c2C(=O)N[C@@H]5C)n3C2CC2)C[C@@H]1N [Example 661, (2~{R})-17-[5-[(3~{S),4~ {R})-3-amino-4-methoxy-piperidine-1-carbonyl]-1-cyclopropyl-7-fluoro-benzimidazol-2-yl]-6-chloro-2-methyl-3,8,16,22-tetrazatetracyclo[14.5.2.0^ {5,10).0^{19,23}] tricosa-1(22),5,7,9,17,19(23), 20-heptaen-4-one]
65	COc1cc(C(=O)N2CC[C@@H](OC)[C@@H](N)C2)cc2nc(-c3cc4ccc5nc4n3CCCCCC[C@](C)(C(F)(F)F)C(=O)N[C@@H]5C)n(C)c12 [Example 720, (8~{S},11~{R})-17-[5-[(3~ {S},4~{R})-3-amino-4-methoxy-piperidine-1-carbonyl]-7-methoxy-1-methyl-benzimidazol-2-yl]-8,11-dimethyl-8-(trifluoromethyl)-1,10,19-triazatricyclo[10.5.2.0^ {15,18}]nonadeca-12(19),13,15(18),16-tetraen-9-one]
50	C[C@H]1NC(=O)c2c(ccnc2C(F)(F)F)CCCCCn2c(-c3nc4cc(C(=O)N5C[C@H](N)[C@@H]6CC[C@H]5C6)cc(F)c4n3C3CC3)cc3ccc1nc32 [Example 478, (2~{R})-17-[5-[(1~{S},4~{R},5~{R})-4-amino-2-azabicyclo[3.2.1]octane-2-carbonyl]-1-cyclopropyl-7-fluoro-benzimidazol-2-yl]-2-methyl-6-(trifluoromethyl)-3,7,16,22-tetrazatetracyclo[14.5.2.0^{5,10).0^{19,23}] tricosa-1(22),5(10),6,8,17,19(23),20-heptaen-4-one]
22	COc1cc(C(=O)N2C[C@H](N)[C@@H]3CC[C@H]2[C@H]3F)cc2nc(-c3cc4ccc5nc4n3CC(F)(F)CCC[C@@H]3C[C@H]3C(=O)N[C@@H]5C)n(C)c12 [Example 668, (2~{R},5~{R},7~{R})-14-[5-[(1~{S},4~{R},5~ {S},8~{S})-4-amino-8-fluoro-2-azabicyclo [3.2.1]octane-2-carbonyl]-7-methoxy-1-methyl-benzimidazol-2-yl]-11,11-difluoro-2-methyl-3,13,19-triazatetracyclo [11.5.2.0^{5,7}.0^{16,20}] icosa-1(19),14,16(20), 17-tetraen-4-one]
5960	COc1cc(C(=O)N[C@@H]2CNC[C@@H]2F)cc2nc(-c3cc4ccc5nc4n3CCCCCCC(C)(C)C(=O)N[C@@H]5C)n(C)c12 [Example 198, ~{N}-[(3~{R},4~{S})-4-fluoropyrrolidin-3-yl]-7-methoxy-1-methyl-2-[(11~{R})-8,8,11-trimethyl-9-oxo-1,10,19-triazatricyclo[10.5.2.0^{15,18}]nonadeca-12(19),13,15(18),16-tetraen-17-yl]benzimidazole-5-carboxamide]
